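Cultured in 96-well plates, cells were exposed to test compound for 48 hours across five concentrations. Here, GI50 denotes the concentration required for 50% inhibition of growth.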 Active and inactive are the calls of the source. Cut-off read from the data, not from the text of the source: active = GI50 up to about 1.1 µM and inactive = higher. Residues, ends and D or L forms follow the SMILES beside them. Groups on a side chain read outwards from the residue. *: point of attachment. Cbz = O=C(OCc1ccccc1)*; Boc = CC(C)(C)OC(=O)*
How the values were obtained:
Assay in all cases: NCI anticancer screen, dose series, 48 h
[1] = tested on: HCT-15
[2] = tested on: T47D
[3] = tested on: DU-145
[4] = tested on: SK-MEL-28
[5] = tested on: NCI/ADR-RES
[6] = tested on: NCI-H460
[7] = tested on: EKVX
[8] = tested on: HL-60
[9] = tested on: K562
[10] = tested on: RXF 393
[11] = tested on: UACC-62
[12] = tested on: OVCAR-8
[13] = tested on: MDA-MB-231
[14] = tested on: Malme-3M
[15] = tested on: 786-0
[16] = tested on: SK-MEL-5
[17] = tested on: BT-549
[18] = tested on: SW-620
[19] = tested on: HCC 2998
[20] = tested on: HOP-92

| SMILES | GI50 [1] [µM] | GI50 [2] | GI50 [3] | GI50 [4] | GI50 [5] | GI50 [6] | GI50 [7] | GI50 [8] | GI50 [9] | GI50 [10] | GI50 [11] | GI50 [12] | GI50 [13] | GI50 [14] | GI50 [15] | GI50 [16] | GI50 [17] | GI50 [18] | GI50 [19] | GI50 [20] |
| --- | --- | --- | --- | --- | --- | --- | --- | --- | --- | --- | --- | --- | --- | --- | --- | --- | --- | --- | --- | --- |
| O=c1[nH]c(=O)n(C2CC(O)C(CO)O2)cc1OC/C=C/Cc1ccccc1 (configuration not stated) | > 100 | > 100 µM (inactive) | > 100 µM (inactive) | > 100 µM (inactive) | > 100 µM (inactive) | > 100 µM (inactive) | > 100 µM (inactive) | > 100 µM (inactive) | > 100 µM (inactive) | > 100 µM (inactive) | > 100 µM (inactive) | > 100 µM (inactive) | > 100 µM (inactive) | > 100 µM (inactive) | > 100 µM (inactive) | > 100 µM (inactive) | > 100 µM (inactive) | – | – | – |
| CC(C)CC(NC(=O)OCc1ccccc1)C(=O)NCCCCC(NC(=O)C(CCCCNC(=O)C(CC(C)C)NC(=O)OCc1ccccc1)NC(=O)C(CCCCNC(=O)C(CC(C)C)NC(=O)OCc1ccccc1)NC(=O)C(CCCCNC(=O)C(CC(C)C)NC(=O)OCc1ccccc1)NC(=O)OC(C)(C)C)C(=O)O (configuration not stated) (Boc-K([Leu-Cbz])K([Leu-Cbz])K([Leu-Cbz])K([Leu-Cbz])-OH; configuration not given here) | > 25 | > 25 µM (inactive) | > 25 µM (inactive) | > 25 µM (inactive) | – | > 25 µM (inactive) | – | > 25 µM (inactive) | > 25 µM (inactive) | – | > 25 µM (inactive) | > 25 µM (inactive) | > 25 µM (inactive) | > 25 µM (inactive) | > 25 µM (inactive) | > 25 µM (inactive) | > 25 µM (inactive) | > 25 µM (inactive) | > 25 µM (inactive) | – |
| N#CC(=N)c1ncn(-c2ccc(N)cc2)c1N | > 100 | > 100 µM (inactive) | > 100 µM (inactive) | > 100 µM (inactive) | > 100 µM (inactive) | > 100 µM (inactive) | > 100 µM (inactive) | > 100 µM (inactive) | > 100 µM (inactive) | – | > 100 µM (inactive) | > 100 µM (inactive) | > 100 µM (inactive) | > 100 µM (inactive) | > 100 µM (inactive) | > 100 µM (inactive) | > 100 µM (inactive) | > 100 µM (inactive) | > 100 µM (inactive) | – |
| CN(C)Nc1cc(=O)[nH]c(=O)[nH]1 | > 100 | – | > 100 µM (inactive) | > 100 µM (inactive) | > 100 µM (inactive) | > 100 µM (inactive) | > 100 µM (inactive) | > 100 µM (inactive) | > 100 µM (inactive) | > 100 µM (inactive) | – | > 100 µM (inactive) | > 100 µM (inactive) | > 100 µM (inactive) | > 100 µM (inactive) | > 100 µM (inactive) | > 100 µM (inactive) | > 100 µM (inactive) | > 100 µM (inactive) | > 100 µM (inactive) |
| O=C(Nc1ccc(Br)c2ccccc12)c1ccc2ccccc2c1O | 2.26 | 1.73 µM (inactive) | 3.89 µM (inactive) | 4.7 µM (inactive) | 2.72 µM (inactive) | 2.23 µM (inactive) | 3.13 µM (inactive) | 3.64 µM (inactive) | 2.55 µM (inactive) | – | 1.82 µM (inactive) | 3.86 µM (inactive) | 3.27 µM (inactive) | 1.36 µM (inactive) | 3.94 µM (inactive) | 1.61 µM (inactive) | 2.83 µM (inactive) | 2.26 µM (inactive) | 5.64 µM (inactive) | – |
| OCCCN=C1CCCCC1 | > 100 | > 100 µM (inactive) | > 100 µM (inactive) | > 100 µM (inactive) | > 100 µM (inactive) | > 100 µM (inactive) | > 100 µM (inactive) | > 100 µM (inactive) | > 100 µM (inactive) | > 100 µM (inactive) | > 100 µM (inactive) | > 100 µM (inactive) | > 100 µM (inactive) | > 100 µM (inactive) | > 100 µM (inactive) | > 100 µM (inactive) | > 100 µM (inactive) | > 100 µM (inactive) | – | > 100 µM (inactive) |
| CCOC(=O)c1c(NC(=O)c2ccccc2)sc2c1CCCC2 | > 100 | > 100 µM (inactive) | > 100 µM (inactive) | > 100 µM (inactive) | > 100 µM (inactive) | – | > 100 µM (inactive) | > 100 µM (inactive) | > 100 µM (inactive) | > 100 µM (inactive) | > 100 µM (inactive) | > 100 µM (inactive) | 81.7 µM (inactive) | 78.9 µM (inactive) | > 100 µM (inactive) | > 100 µM (inactive) | > 100 µM (inactive) | > 100 µM (inactive) | – | – |
| CC(NC(=O)Cc1ccccc1)NC(=O)C(C)C(=O)NCc1ccccc1 (configuration not stated) | > 100 | > 100 µM (inactive) | > 100 µM (inactive) | – | > 100 µM (inactive) | > 100 µM (inactive) | > 100 µM (inactive) | > 100 µM (inactive) | > 100 µM (inactive) | 42.6 µM (inactive) | > 100 µM (inactive) | 32.4 µM (inactive) | 46.8 µM (inactive) | > 100 µM (inactive) | > 100 µM (inactive) | > 100 µM (inactive) | 27.9 µM (inactive) | > 100 µM (inactive) | – | 31.4 µM (inactive) |
| O=c1c2c(-c3ccccc3)onc2n(-c2ccccc2)c(=O)n1-c1ccccc1 | 15.8 | > 100 µM (inactive) | – | – | 16.9 µM (inactive) | 17.9 µM (inactive) | 20.3 µM (inactive) | – | > 100 µM (inactive) | > 100 µM (inactive) | 14.5 µM (inactive) | 17.5 µM (inactive) | > 100 µM (inactive) | 17.5 µM (inactive) | > 100 µM (inactive) | > 100 µM (inactive) | 19.2 µM (inactive) | > 100 µM (inactive) | 18.2 µM (inactive) | > 100 µM (inactive) |
| O=C(Nn1c(-c2cccs2)nc2ccc(I)cc2c1=O)c1ccccc1 | 30.6 | – | 20.6 µM (inactive) | 24.7 µM (inactive) | 31.8 µM (inactive) | 26.8 µM (inactive) | 27.8 µM (inactive) | – | – | 35.4 µM (inactive) | 20.6 µM (inactive) | 39 µM (inactive) | – | – | 43.2 µM (inactive) | 21.9 µM (inactive) | 16.4 µM (inactive) | 71.6 µM (inactive) | 22 µM (inactive) | 17.8 µM (inactive) |
| O=C1CC(c2ccccc2)[S+]([O-])c2ccccc2N1 (configuration not stated) | > 100 | > 100 µM (inactive) | > 100 µM (inactive) | > 100 µM (inactive) | > 100 µM (inactive) | > 100 µM (inactive) | > 100 µM (inactive) | > 100 µM (inactive) | > 100 µM (inactive) | – | > 100 µM (inactive) | 61.7 µM (inactive) | > 100 µM (inactive) | > 100 µM (inactive) | > 100 µM (inactive) | > 100 µM (inactive) | > 100 µM (inactive) | – | – | – |
| CC(=O)Nc1ccc2cc3c(nc2n1)c1cccnc1n3S(=O)(=O)c1ccccc1 | > 100 | – | – | > 100 µM (inactive) | > 100 µM (inactive) | > 100 µM (inactive) | > 100 µM (inactive) | > 100 µM (inactive) | > 100 µM (inactive) | > 100 µM (inactive) | > 100 µM (inactive) | > 100 µM (inactive) | > 100 µM (inactive) | > 100 µM (inactive) | 8.02 µM (inactive) | > 100 µM (inactive) | > 100 µM (inactive) | > 100 µM (inactive) | > 100 µM (inactive) | > 100 µM (inactive) |
| O=C1c2ccccc2C(=O)c2c(NC(=O)C3CC3)ccc(NC(=O)C3CC3)c21 | > 100 | > 100 µM (inactive) | – | > 100 µM (inactive) | > 100 µM (inactive) | > 100 µM (inactive) | > 100 µM (inactive) | 95.7 µM (inactive) | > 100 µM (inactive) | – | 26.9 µM (inactive) | > 100 µM (inactive) | > 100 µM (inactive) | 61.2 µM (inactive) | 61.7 µM (inactive) | > 100 µM (inactive) | > 100 µM (inactive) | > 100 µM (inactive) | > 100 µM (inactive) | – |
| Cc1cc(C)n(-c2nc3ccccc3c(=O)[nH]2)n1 | 2.11 | 11 µM (inactive) | 5.89 µM (inactive) | 6.82 µM (inactive) | 1.53 µM (inactive) | 1.21 µM (inactive) | 5.42 µM (inactive) | 1.32 µM (inactive) | 1.64 µM (inactive) | – | 2.78 µM (inactive) | 0.863 µM (active) | 11 µM (inactive) | – | 2.24 µM (inactive) | 2.64 µM (inactive) | 18.8 µM (inactive) | 3.28 µM (inactive) | 14.8 µM (inactive) | 21.7 µM (inactive) |
| O=C1CSC(c2cccc([N+](=O)[O-])c2)N1c1ccc(-c2ccc(-n3c(-c4ccccc4)nc4ccccc4c3=O)cc2)cc1 (configuration not stated) | 32.1 | 17.9 µM (inactive) | 38.4 µM (inactive) | 43.6 µM (inactive) | 37.2 µM (inactive) | 25.5 µM (inactive) | 36.3 µM (inactive) | 19.5 µM (inactive) | 24.7 µM (inactive) | – | 28.8 µM (inactive) | 40.7 µM (inactive) | 29.9 µM (inactive) | 29.8 µM (inactive) | 24.6 µM (inactive) | 29.1 µM (inactive) | 23.3 µM (inactive) | 40 µM (inactive) | > 100 µM (inactive) | > 100 µM (inactive) |
| COc1cc(C2=NNC(=O)c3ccccc3N2c2nc(-c3cccs3)nc3ccc(Br)cc23)cc(OC)c1OC | 4.38 | 15.1 µM (inactive) | 14.7 µM (inactive) | 13.3 µM (inactive) | 4.91 µM (inactive) | 2.91 µM (inactive) | 13 µM (inactive) | – | – | – | 12.4 µM (inactive) | 4.62 µM (inactive) | 17.9 µM (inactive) | 17.3 µM (inactive) | 6.95 µM (inactive) | 10.5 µM (inactive) | 32.8 µM (inactive) | 18.4 µM (inactive) | – | 4.83 µM (inactive) |
